{
  "source": "paper PMC11148373",
  "about": "“Cubeb (Piper cubeba L.): nutritional value, phytochemical profiling and dermacosmeceutical properties” (Frontiers in Nutrition, 2024)",
  "target": "T1, elastase from porcine pancreas (Sus scrofa, UniProt P00772)",
  "T1 construct": "gene CELA1; commercial native porcine pancreatic elastase (Sigma Aldrich)",
  "T1 sequence (P00772 27-266)": "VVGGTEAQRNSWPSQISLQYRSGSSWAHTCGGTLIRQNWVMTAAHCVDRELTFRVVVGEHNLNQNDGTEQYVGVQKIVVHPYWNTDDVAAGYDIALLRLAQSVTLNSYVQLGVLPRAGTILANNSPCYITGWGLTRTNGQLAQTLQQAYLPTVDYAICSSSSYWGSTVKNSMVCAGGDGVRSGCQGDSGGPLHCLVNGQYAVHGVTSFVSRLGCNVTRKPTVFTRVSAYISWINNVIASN",
  "test": "N-Succinyl-Ala-Ala-Ala-p-nitroanilide hydrolysis, absorbance at […] nm",
  "format": "biochemical",
  "conditions": "read-out: IC50 (μg/mL) / Elastase (converted)",
  "data": [
    {"smiles": "O=C(O[C@@H]1Cc2c(O)cc(O)cc2O[C@@H]1c1cc(O)c(O)c(O)c1)c1cc(O)c(O)c(O)c1", "note": "[Epigallocatechin gallate]", "values": [
      {"measurement": "IC50", "result": 505, "unit": "µM"}
    ]}
  ]
}
